Assay results as given in US20210395239A1 (Hoffmann-La Roche Inc., priority 2018, published 2021).
Read-outs that look alike come from different tables or passages of the source.

Assays:
[1] = target: T1, hTLR9 (Homo sapiens, UniProt Q9NR96); set-up: host or cells: HEK; conditions: data disclosed in US20150105370; read-out: HEK/hTLR9 IC50; cited from earlier work
T1 sequence (Q9NR96 26-1032): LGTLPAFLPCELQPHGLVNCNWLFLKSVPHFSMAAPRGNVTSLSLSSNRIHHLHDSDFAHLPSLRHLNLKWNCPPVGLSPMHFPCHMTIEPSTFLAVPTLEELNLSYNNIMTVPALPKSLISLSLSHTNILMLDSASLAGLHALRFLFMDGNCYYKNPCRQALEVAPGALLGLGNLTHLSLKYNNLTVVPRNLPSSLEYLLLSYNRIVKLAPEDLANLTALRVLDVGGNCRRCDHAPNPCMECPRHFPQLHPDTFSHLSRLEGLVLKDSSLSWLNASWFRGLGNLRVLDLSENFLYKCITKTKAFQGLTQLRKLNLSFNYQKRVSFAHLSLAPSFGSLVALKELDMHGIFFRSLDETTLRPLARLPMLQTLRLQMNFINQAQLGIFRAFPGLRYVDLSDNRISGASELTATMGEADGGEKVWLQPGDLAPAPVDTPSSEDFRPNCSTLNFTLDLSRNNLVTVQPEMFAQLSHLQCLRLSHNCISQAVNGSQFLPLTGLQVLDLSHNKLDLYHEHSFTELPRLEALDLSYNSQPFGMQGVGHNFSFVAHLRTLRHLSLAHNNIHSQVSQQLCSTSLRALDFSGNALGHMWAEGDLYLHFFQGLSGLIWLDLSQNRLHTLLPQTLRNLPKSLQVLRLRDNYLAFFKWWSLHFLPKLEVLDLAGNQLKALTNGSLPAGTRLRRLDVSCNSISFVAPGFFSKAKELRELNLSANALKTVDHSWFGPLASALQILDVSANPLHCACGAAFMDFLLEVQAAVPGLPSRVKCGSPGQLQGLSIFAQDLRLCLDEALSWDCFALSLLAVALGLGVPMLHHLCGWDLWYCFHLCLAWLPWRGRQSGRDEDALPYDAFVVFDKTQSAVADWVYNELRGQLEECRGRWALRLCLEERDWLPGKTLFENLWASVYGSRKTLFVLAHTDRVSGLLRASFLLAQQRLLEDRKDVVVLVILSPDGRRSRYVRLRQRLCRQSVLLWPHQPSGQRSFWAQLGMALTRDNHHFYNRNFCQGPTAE

[2] = target: T2, hERG channel (Homo sapiens, UniProt Q12809); assay: hERG channel inhibition assay (patch-clamp, CHOhERG cells); format: cell-based; conditions: for safety window (hERG IC20/TLR7/8/9 IC50) compared to the compounds of this invention: result in words; for hERG IC20/TLR7 IC50 / hERG IC20/TLR8 IC50 / hERG IC20/TLR9 IC50: safety ratio
T2 construct: expressed in transfected cells; host or cells: CHO (Chinese hamster ovary)
Procedure: hERG Channel Inhibition Assay:
The hERG K^+ channels were cloned in humans and stably expressed in a CHO (Chinese hamster ovary) cell line. CHOhERG cells were used for patch-clamp (voltage-clamp, whole-cell) experiments. Cells were stimulated by a voltage pattern to activate hERG channels and conduct IKhERG currents (rapid delayed outward rectifier potassium current of the hERG channel). After the cells were stabilized for a few minutes, the amplitude and kinetics of IKhERG were recorded at a stimulation frequency of 0.1 Hz, (6 bpm). Thereafter, the test compound was added to the preparation at increasing concentrations. For each concentration, an attempt was made to reach a steady-state effect, usually, this was achieved within 3-10 min at which time the next highest concentration was applied. The amplitude and kinetics of IKhERG are recorded in each concentration of the drug which were compared to the control values (taken as 100%). (references: Redfern W S, Carlsson L, Davis A S, Lynch W G, MacKenzie I, Palethorpe S, Siegl P K, Strang I, Sullivan A T, Wallis R, Camm A J, Hammond T G. 2003; Relationships between preclinical cardiac electrophysiology, clinical QT interval prolongation and torsade de pointes for a broad range of drugs: evidence for a provisional safety margin in drug development. Cardiovasc. Res. 58:32-45, Sanguinetti M C, Tristani-Firouzi M. 2006; hERG potassium channels and cardiac arrhythmia. Nature 440:463-469, Webster R, Leishman D, Walker D. 2002; Towards a drug concentration effect relationship for QT prolongation and torsades de pointes. Curr. Opin. Drug Discov. Devel. 5:116-26).

[3] = target: T3, human TLR7 (Homo sapiens, UniProt Q9NYK1); assay: HEK293-Blue-hTLR-7 cells assay (SEAP reporter, R848 stimulation); format: cell-based; conditions: HEK293-Blue-hTLR7 cells, R848, 20 hrs; read-out: HEK/hTLR7 IC50
T3 construct: host or cells: HEK293 (HEK-Blue hTLR7)
T3 sequence (Q9NYK1 27-1049): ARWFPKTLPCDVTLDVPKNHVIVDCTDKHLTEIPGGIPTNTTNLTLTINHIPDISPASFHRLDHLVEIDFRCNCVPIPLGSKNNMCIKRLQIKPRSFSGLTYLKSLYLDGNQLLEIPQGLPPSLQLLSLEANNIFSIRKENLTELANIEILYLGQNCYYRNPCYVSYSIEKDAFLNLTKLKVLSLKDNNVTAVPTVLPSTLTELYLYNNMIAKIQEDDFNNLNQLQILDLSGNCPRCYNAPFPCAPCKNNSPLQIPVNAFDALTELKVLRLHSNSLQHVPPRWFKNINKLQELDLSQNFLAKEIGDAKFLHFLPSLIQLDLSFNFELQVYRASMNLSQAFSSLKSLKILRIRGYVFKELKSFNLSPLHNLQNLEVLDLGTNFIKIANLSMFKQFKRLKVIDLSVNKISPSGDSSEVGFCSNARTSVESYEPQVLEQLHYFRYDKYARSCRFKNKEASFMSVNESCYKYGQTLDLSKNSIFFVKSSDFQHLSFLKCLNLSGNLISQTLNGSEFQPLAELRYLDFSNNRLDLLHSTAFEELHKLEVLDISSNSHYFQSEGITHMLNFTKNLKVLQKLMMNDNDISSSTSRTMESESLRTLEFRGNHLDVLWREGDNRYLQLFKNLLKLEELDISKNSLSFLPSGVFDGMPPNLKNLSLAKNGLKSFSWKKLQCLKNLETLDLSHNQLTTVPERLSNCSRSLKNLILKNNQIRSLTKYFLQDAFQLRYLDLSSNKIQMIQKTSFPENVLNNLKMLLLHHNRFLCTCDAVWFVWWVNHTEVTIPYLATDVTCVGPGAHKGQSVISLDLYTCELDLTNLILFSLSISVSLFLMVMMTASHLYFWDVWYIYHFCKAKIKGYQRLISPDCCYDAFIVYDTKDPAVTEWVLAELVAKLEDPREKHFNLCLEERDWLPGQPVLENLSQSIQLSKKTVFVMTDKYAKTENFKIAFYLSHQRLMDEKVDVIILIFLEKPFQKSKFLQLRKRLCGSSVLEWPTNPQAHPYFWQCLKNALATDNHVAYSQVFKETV
From the text: HEK293-Blue-hTLR-7 Cells Assay:
(§1) A stable HEK293-Blue-hTLR-7 cell line was purchased from InvivoGen (Cat. #: hkb-ht1r7, San Diego, Calif., USA). These cells were originally designed for studying the stimulation of human TLR7 by monitoring the activation of NF-κB. A SEAP (secreted embryonic alkaline phosphatase) reporter gene was placed under the control of the IFN-β minimal promoter fused to five NF-κB and AP-1-binding sites. The SEAP was induced by activating NF-κB and AP-1 via stimulating HEK-Blue hTLR7 cells with TLR7 ligands. Therefore the reporter expression was declined by TLR7 antagonist under the stimulation of a ligand, such as R848 (Resiquimod), for incubation of 20 hrs. The cell culture supernatant SEAP reporter activity was determined using QUANTI-Blue™ kit (Cat. #: rep-qb1, Invivogen, San Diego, Ca, USA) at a wavelength of 640 nm, a detection medium that turns purple or blue in the presence of alkaline phosphatase.
HEK293-Blue-hTLR7 cells were incubated at a density of […] cells/mL in a volume of 170 μL in a 96-well plate in Dulbecco's Modified Eagle's medium (DMEM) containing 4.5 g/L glucose, 50 U/mL penicillin, […], […], 2 mM L-glutamine, 10% (v/v) heat-inactivated fetal bovine serum with addition of 20 μL test compound in a serial dilution in the presence of final DMSO at 1% and 10 μL of 20 uM R848 in above DMEM, perform incubation under 37° C. in a CO2 incubator for 20 hrs. Then 20 μL of the supernatant from each well was incubated with 180 μL Quanti-blue substrate solution at 37° C. for 2 hrs and the absorbance was read at 620˜655 nm using a spectrophotometer. The signaling pathway that TLR7 activation leads to downstream NF-κB activation has been widely accepted, and therefore similar reporter assay was modified for evaluating TLR7 antagonist.

[4] = target: T1, hTLR9; assay: HEK293-Blue-hTLR-9 cells assay (SEAP reporter, ODN2006 stimulation); format: cell-based; set-up: host or cells: HEK293 (HEK-Blue hTLR9); conditions: HEK293-Blue-hTLR9 cells, ODN2006, 20 hrs; read-out: HEK/hTLR9 IC50
From the text: HEK293-Blue-hTLR-9 Cells Assay:
as §1, with “HEK293-Blue-hTLR-9” for “HEK293-Blue-hTLR-7”, “hkb-htlr9,” for “hkb-ht1r7,”, “TLR9” for “TLR7”, “hTLR9” for “hTLR7”, “ODN2006 (Cat. #: tlrl-2006-1, Invivogen, San Diego, Calif., USA),” for “R848 (Resiquimod),”, “Calif.,” for “Ca,”
HEK293-Blue-hTLR9 cells were incubated at a density of 250,000˜450,000 cells/mL in a volume of 170 μL in a 96-well plate in Dulbecco's Modified Eagle's medium (DMEM) containing 4.5 g/L glucose, 50 U/mL penicillin, […], 2 mM L-glutamine, 10% (v/v) heat-inactivated fetal bovine serum with addition of 20 μL test compound in a serial dilution in the presence of final DMSO at 1% and 10 μL of 20 uM ODN2006 in above DMEM, perform incubation under 37° C. in a CO2 incubator for 20 hrs. Then 20 μL of the supernatant from each well was incubated with 180 μL Quanti-blue substrate solution at 37° C. for 2 h and the absorbance was read at 620-655 nm using a spectrophotometer. The signaling pathway that TLR9 activation leads to downstream NF-κB activation has been widely accepted, and therefore similar reporter assay was modified for evaluating TLR9 antagonist.

T2 sequence (Q12809 whole entry): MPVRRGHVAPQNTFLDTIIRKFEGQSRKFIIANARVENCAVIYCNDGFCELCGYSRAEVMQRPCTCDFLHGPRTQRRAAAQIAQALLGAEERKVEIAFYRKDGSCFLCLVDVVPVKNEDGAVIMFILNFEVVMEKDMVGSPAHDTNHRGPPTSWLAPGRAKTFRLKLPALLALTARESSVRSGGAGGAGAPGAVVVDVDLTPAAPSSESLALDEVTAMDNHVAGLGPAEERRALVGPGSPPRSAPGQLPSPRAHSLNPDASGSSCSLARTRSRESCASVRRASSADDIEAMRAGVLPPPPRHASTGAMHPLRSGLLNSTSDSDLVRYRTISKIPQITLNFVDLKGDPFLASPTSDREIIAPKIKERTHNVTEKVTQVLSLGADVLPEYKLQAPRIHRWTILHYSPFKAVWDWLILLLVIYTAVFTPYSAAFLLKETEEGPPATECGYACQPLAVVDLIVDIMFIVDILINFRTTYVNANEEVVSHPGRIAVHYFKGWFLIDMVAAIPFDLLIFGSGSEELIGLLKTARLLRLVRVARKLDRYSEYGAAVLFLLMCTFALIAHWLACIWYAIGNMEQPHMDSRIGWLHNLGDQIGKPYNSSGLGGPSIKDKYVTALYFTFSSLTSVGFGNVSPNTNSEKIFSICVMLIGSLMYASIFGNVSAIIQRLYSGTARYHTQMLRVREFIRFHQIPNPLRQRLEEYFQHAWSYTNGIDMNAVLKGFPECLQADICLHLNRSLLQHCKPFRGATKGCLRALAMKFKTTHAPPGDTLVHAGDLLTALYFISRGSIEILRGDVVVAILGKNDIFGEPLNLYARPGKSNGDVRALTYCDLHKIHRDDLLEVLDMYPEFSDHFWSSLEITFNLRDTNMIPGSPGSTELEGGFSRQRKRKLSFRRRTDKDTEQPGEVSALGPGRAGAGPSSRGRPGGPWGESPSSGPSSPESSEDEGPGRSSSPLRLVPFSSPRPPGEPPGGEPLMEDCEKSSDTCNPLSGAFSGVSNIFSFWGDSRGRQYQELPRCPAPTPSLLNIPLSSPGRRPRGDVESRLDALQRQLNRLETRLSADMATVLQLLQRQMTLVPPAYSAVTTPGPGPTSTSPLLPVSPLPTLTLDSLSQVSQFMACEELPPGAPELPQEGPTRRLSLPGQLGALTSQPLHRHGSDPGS

SMILES	IC50 [1]	safety window (hERG IC20/TLR7/8/9 IC50) compared to the compounds of this invention [2]	hERG IC20/TLR7 IC50 [2]	hERG IC20/TLR8 IC50 [2]	hERG IC20/TLR9 IC50 [2]	IC50 [3]	IC50 [4]
C[C@@H]1CN(c2ccc(C#N)c3ncccc23)C[C@H](CN2CC(NS(=O)(=O)c3ccc(F)cc3)C2)O1 [ER-894155]	> 10000 nM						
C[C@@H]1CN(c2ccc(C#N)c3ncccc23)C[C@H](CN2CCN(c3ccc(Cl)cc3)CC2)O1 [Example R2, 5-[(2S,6R)-2-[[4-(4-chlorophenyl)piperazin-1-yl]methyl]-6-methyl-morpholin-4-yl]quinoline-8-carbonitrile, reference compound]		much narrower safety window	1.3	0.8	0.04		
COc1ccc(N2CCN(C[C@H]3CN(c4ccc(C#N)c5ncccc45)C[C@@H](C)O3)CC2)cc1 [Example R1, 5-[(2S,6R)-2-[[4-(4-methoxyphenyl)piperazin-1-yl]methyl]-6-methyl-morpholin-4-yl]quinoline-8-carbonitrile, reference compound]		much narrower safety window	9.3	6.2	0.1		
C[C@@H]1CN(c2ccc(C#N)c3ncccc23)C[C@H](CN2CCN(c3ccccc3)CC2)O1 [ER-887258, reference compound]	> 2000 nM	much narrower safety window	8.1		0.3		
Cc1nn(C)cc1S(=O)(=O)NC1CCN(C[C@H]2CN(c3ccc(C#N)c4ncccc34)C[C@@H](C)O2)CC1 [ER-894160]	> 10000 nM						
[2H]c1nc2c(C#N)ccc(N3C[C@H](CN4CCN(c5nc(C)cc(N6C[C@H](OC)[C@@H](N)C6)n5)CC4)O[C@H](C)C3)c2nc1[2H] [Example 105, 8-[(2S,6R)-2-[[4-[4-[(3S,4S)-3-amino-4-methoxy-pyrrolidin-1-yl]-6-methyl-pyrimidin-2-yl]piperazin-1-yl]methyl]-6-methyl-morpholin-4-yl]-2,3-dideuterio-quinoxaline-5-carbonitrile]						13 nM	69 nM
C[C@@H]1CN(c2ccc(C#N)c3ncccc23)C[C@H](CN2CC[C@@H](NC(=O)c3ccccc3)C2)O1 [ER-894544]	> 6200 nM						
C[C@@H]1CN(c2ccc(C#N)c3ncccc23)C[C@H](CN2CCN(c3ccccn3)CC2)O1 [ER-888285, reference compound]	> 2000 nM	much narrower safety window	8.4		0.5		
